# Laboratory results: patent US20240109893A1, “PREPARATION AND APPLICATION METHOD OF HETEROCYCLIC COMPOUNDS AS KRAS INHIBITOR” (SHANGHAI KECHOW PHARMA, INC., priority 2020, published 2024)
# pIC50: −log10 of the molar value.
# System: H358 cells
# Assay: Cell activity experiment: activity test of H358 cells (MTT, 5 days)
# Format: cell-based
# Conditions: Homo sapiens, NCI-H358, 120 h, 5 days incubation, absorbance 492 nm
# Description: Example: Cell Activity Experiment
# 1. Cells: H358 purchased from Shanghai EK-Bioscience Biotechnology Co., Ltd.
# 2. Reagents: RPMI 1640 medium, Tryple, MTT (5 mg/mL), DMSO, and DPBS.
# 3. Instruments: an incubator at 37° C. and 5% CO2, a UTRAO microplate reader, a biosafety cabinet, a cell counting plate, and an Optec optical microscope.
# 4. Experimental consumables: 96-well plate Item No.: 3599, and 96-well round-bottomed dispensing plate.
# Experimental Steps of Activity Test of H358 Cells:
# 1. Plating: Cells in the logarithmic growth phase were digested with Tryple and terminated with a fresh medium, and the cells were counted; and the cell concentration was adjusted to 55555 cells/mL with a fresh medium, wherein 90 μL was added to each well, and those on edges were filled with sterile DPBS.
# 2. The plate was incubated in the incubator at 37° C. and 5% CO2 for 24 h, so that the cells cover the bottom of the well by about 50%.
# 3. Drug preparation for experimental group: The drug was dissolved in DMSO to prepare a 20 mmol/L stock solution; the stock solution was further diluted with DMSO to 2 mmol/L, which was serially 3-fold diluted to form an […]-concentration gradient, resulting in a 200× serial compound solution; 10 μL of the serial compound solution was taken and added to 190 μLμL of RPMI1640 medium to obtain a 10× serial compound solution; and 10 μL of the 10× compound solution was taken and added to 90 μL 96-well cell culture plate, with three replicates per grade. The concentration gradient of the compound in the 96-well cell culture plate was […], 1.524158 nM, 4.572474 nM, 13.717420 nM, 41.152260 nM, 123.456800 nM, 370.370400 nM, 1111.111000 nM, 3333.333000 nM, and 10000.000000 nM, with 100 μL per well, and the final concentration of DMSO was 0.5%.
# The control group contained the same volume of solvent as the experimental group and was diluted with a complete medium, with 100 μL per well.
# 4. Incubation was carried out for 5 days in an incubator with 5% CO2 at 37° C.
# 5. After 5 days, 10 μL of an MTT solution (5 mg/mL) was added to each well, and the culture was continued for 4 h.
# 6. The culture was terminated, and the culture solution was carefully sucked out of the well.
# 7. 150 μL of dimethyl sulfoxide (DMSO) was added to each of the null wells in the experimental group and the control group; and after shaking at a medium speed for 10 s, the crystal was fully dissolved, and the optical absorbance value thereof was measured at a wavelength of 492 nm.
row,SMILES,pIC50
1,"C=C(F)C(=O)N1CCN(c2nc(OC[C@@H]3CCCN3C)nc3c(F)c(-c4cccc5c4SCCC5)ncc23)C[C@@H]1CC#N [Example 53, 2-((S)-4-(8-fluoro-2-(((S)-1-methylpyrrolidin-2-yl)methoxy)-7-(thiochroman-8-yl)pyridino[4,3-d]pyrimidin-4-yl)-1-(2-fluoroacryloyl)piperazin-2-yl)acetonitrile]",6.74
2,"C=CC(=O)N1CCN(c2nc(OC[C@@H]3CCCN3C)nc3c(F)c(-c4ccc(F)c5c4SCCC5)ncc23)C[C@@H]1CC#N [Example 54, 2-((S)-1-acryloyl-4-(8-fluoro-7-(5-fluorothiochroman-8-yl)-2-(((S)-1-methylpyrrolidin-2-yl)methoxy)pyridino[4,3-d]pyrimidin-4-yl)piperazin-2-yl)acetonitrile]",7.15
3,"C=C(F)C(=O)N1CCN(c2nc(OC[C@@H]3CCCN3C)nc3c(F)c(-c4cccc5c4C4CC4C5)ncc23)C[C@@H]1CC#N (stereo partly drawn) [Example 55, 2-((2S)-4-(8-fluoro-2-(((S)-1-methylpyrrolidin-2-yl)methoxy)-7-(1,1a,6,6a-tetrahydrocyclopropa[a]inden-2-yl)pyridino[4,3-d]pyrimidin-4-yl)-1-(2-fluoroacryloyl)piperazin-2-yl)acetonitrile]",6.80
4,"C=CC(=O)N1CCN(c2nc(OC[C@@H]3CCCN3C)nc3c(F)c(-c4cccc5c4[C@H]4C[C@H]4C5)ncc23)C[C@@H]1CC#N [Example 56, 2-((S)-1-acryloyl-4-(8-fluoro-2-(((S)-1-methylpyrrolidin-2-yl)methoxy)-7-((1aS,6aS)-1,1a,6,6a-tetrahydrocyclopropa[a]inden-2-yl)pyridino[4,3-d]pyrimidin-4-yl)piperazin-2-yl)acetonitrile]",8.66
5,"C=C(F)C(=O)N1CCN(c2nc(OC[C@@H]3CCCN3C)nc3c(F)c(-c4cccc5c4[C@H]4C[C@H]4C5)ncc23)C[C@@H]1CC#N [Example 57, 2-((S)-4-(8-fluoro-2-(((S)-1-methylpyrrolidin-2-yl)methoxy)-7-((1aS,6aS)-1,1a,6,6a-tetrahydrocyclopropa[a]inden-2-yl)pyridino[4,3-d]pyrimidin-4-yl)-1-(2-fluoroacryloyl)piperazin-2-yl)acetonitrile]",6.82
6,"C=C(F)C(=O)N1CCN(c2nc(OC[C@@H]3CCCN3C)nc3c(F)c(-c4cccc5c4[C@@H]4C[C@@H]4C5)ncc23)C[C@@H]1CC#N [Example 59, 2-((S)-4-(8-fluoro-2-(((S)-1-methylpyrrolidin-2-yl)methoxy)-7-((1aR,6aR)-1,1a,6,6a-tetrahydrocyclopropa[a]inden-2-yl)pyridino[4,3-d]pyrimidin-4-yl)-1-(2-fluoroacryloyl)piperazin-2-yl)acetonitrile]",6.85
7,"C=CC(=O)N1CCN(c2nc(OC[C@@H]3CCCN3C)nc3c(F)c(-c4cccc5c4CC(C)C5)ncc23)C[C@@H]1CC#N (stereo partly drawn) [Example 60, 2-((2S)-1-acryloyl-4-(8-fluoro-7-(2-methyl-2,3-dihydro-1H-inden-4-yl)-2-(((S)-1-methylpyrrolidin-2-yl)methoxy)pyridino[4,3-d]pyrimidin-4-yl)piperazin-2-yl)acetonitrile]",7.15
8,"C=C(F)C(=O)N1CCN(c2nc(OCC34CCCN3CCC4)nc3c(F)c(-c4cccc5c4C4CC4C5)ncc23)C[C@@H]1CC#N (stereo partly drawn) [Example 62, 2-((2S)-4-(8-fluoro-2-((tetrahydro-1H-pyrrolizin-7a(5H)-yl)methoxy)-7-(1,1a,6,6a-tetrahydrocyclopropa[a]inden-2-yl)pyridino[4,3-d]pyrimidin-4-yl)-1-(2-fluoroacryloyl)piperazin-2-yl)acetonitrile]",8.10
9,"C=CC(=O)N1CCN(c2nc(OCC34CCCN3CCC4)nc3c(F)c(-c4cccc5c4[C@H]4C[C@H]4C5)ncc23)C[C@@H]1CC#N [Example 63, 2-((S)-1-acryloyl-4-(8-fluoro-2-((tetrahydro-1H-pyrrolizin-7a(5H)-yl)methoxy)-7-((1aS,6aS)-1,1a,6,6a-tetrahydrocyclopropa[a]inden-2-yl)pyridino[4,3-d]pyrimidin-4-yl)piperazin-2-yl)acetonitrile]",8.66
10,"C=C(F)C(=O)N1CCN(c2nc(OCC34CCCN3CCC4)nc3c(F)c(-c4cccc5c4[C@H]4C[C@H]4C5)ncc23)C[C@@H]1CC#N [Example 64, 2-((S)-4-(8-fluoro-2-((tetrahydro-1H-pyrrolizin-7a(5H)-yl)methoxy)-7-((1aS,6aS)-1,1a,6,6a-tetrahydrocyclopropa[a]inden-2-yl)pyridino[4,3-d]pyrimidin-4-yl)-1-(2-fluoroacryloyl)piperazin-2-yl)acetonitrile]",8.00
11,C=CC(=O)N1CCN(c2nc(OCC34CCCN3CCC4)nc3c(F)c(-c4cccc5c4[C@@H]4C[C@@H]4C5)ncc23)C[C@@H]1CC#N [Example 65],8.49
12,"C=C(F)C(=O)N1CCN(c2nc(OCC34CCCN3CCC4)nc3c(F)c(-c4cccc5c4[C@@H]4C[C@@H]4C5)ncc23)C[C@@H]1CC#N [Example 66, 2-((S)-4-(8-fluoro-2-((tetrahydro-1H-pyrrolizin-7a(5H)-yl)methoxy)-7-((1aR,6aR)-1,1a,6,6a-tetrahydrocyclopropa[a]inden-2-yl)pyridino[4,3-d]pyrimidin-4-yl)-1-(2-fluoroacryloyl)piperazin-2-yl)acetonitrile]",8.05
13,C=C(F)C(=O)N1CCN(c2nc(OC[C@@]34CCCN3C[C@H](F)C4)nc3c(F)c(-c4cccc5c4[C@H]4C[C@H]4C5)ncc23)C[C@@H]1CC#N [Example 70],8.15
14,C=C(F)C(=O)N1CCN(c2nc(OC[C@@]34CCCN3C[C@H](F)C4)nc3c(F)c(-c4cccc5c4[C@@H]4C[C@@H]4C5)ncc23)C[C@@H]1CC#N [Example 72],8.10

# Stronger by pIC50, values ahead:
row,pIC50,SMILES
1,9.66,"C=CC(=O)N1CCN(c2nc(OC[C@@H]3CCCN3C)nc3c(F)c(-c4cccc5c4C4CC4C5)ncc23)C[C@@H]1CC#N (stereo partly drawn) [Example 52, 2-((2S)-1-acryloyl-4-(8-fluoro-2-(((S)-1-methylpyrrolidin-2-yl)methoxy)-7-(1,1a,6,6a-tetrahydrocyclopropa[a]inden-2-yl)pyridino[4,3-d]pyrimidin-4-yl)piperazin-2-yl)acetonitrile]"
2,9.09,"C=CC(=O)N1CCN(c2nc(OC[C@@H]3CCCN3C)nc3c(F)c(-c4cccc5c4[C@@H]4C[C@@H]4C5)ncc23)C[C@@H]1CC#N [Example 58, 2-((S)-1-acryloyl-4-(8-fluoro-2-(((S)-1-methylpyrrolidin-2-yl)methoxy)-7-((1aR,6aR)-1,1a,6,6a-tetrahydrocyclopropa[a]inden-2-yl)pyridino[4,3-d]pyrimidin-4-yl)piperazin-2-yl)acetonitrile]"
3,9.15,C=CC(=O)N1CCN(c2nc(OCC34CCCN3CCC4)nc3c(F)c(-c4cccc5c4C4CC4C5)ncc23)C[C@@H]1CC#N (stereo partly drawn) [Example 61]
4,10.15,C=CC(=O)N1CCN(c2nc(OC[C@@]34CCCN3C[C@H](F)C4)nc3c(F)c(-c4cccc5c4C4CC4C5)ncc23)C[C@@H]1CC#N (stereo partly drawn) [Example 67]
5,9.48,C=C(F)C(=O)N1CCN(c2nc(OC[C@@]34CCCN3C[C@H](F)C4)nc3c(F)c(-c4cccc5c4C4CC4C5)ncc23)C[C@@H]1CC#N (stereo partly drawn) [Example 68]
6,8.74,C=CC(=O)N1CCN(c2nc(OC[C@@]34CCCN3C[C@H](F)C4)nc3c(F)c(-c4cccc5c4[C@H]4C[C@H]4C5)ncc23)C[C@@H]1CC#N [Example 69]
7,9.70,C=CC(=O)N1CCN(c2nc(OC[C@@]34CCCN3C[C@H](F)C4)nc3c(F)c(-c4cccc5c4[C@@H]4C[C@@H]4C5)ncc23)C[C@@H]1CC#N [Example 71]
